Source: patent US8153593B2, “Transglutaminase inhibitors and methods of use thereof” (The Board of Trustees of the Leland Stanford Junior …, priority 2003, dated 2012)

Experiments:
[1] = target: T1, recombinant human tissue transglutaminase (Homo sapiens, UniProt P21980); assay: tTGase inhibition assay, residual activity by glutamate dehydrogenase coupled assay; type: biochemical; conditions: dihydroisoxazoles, Table 1
T1 construct: made in house
T1 sequence (P21980 1-687): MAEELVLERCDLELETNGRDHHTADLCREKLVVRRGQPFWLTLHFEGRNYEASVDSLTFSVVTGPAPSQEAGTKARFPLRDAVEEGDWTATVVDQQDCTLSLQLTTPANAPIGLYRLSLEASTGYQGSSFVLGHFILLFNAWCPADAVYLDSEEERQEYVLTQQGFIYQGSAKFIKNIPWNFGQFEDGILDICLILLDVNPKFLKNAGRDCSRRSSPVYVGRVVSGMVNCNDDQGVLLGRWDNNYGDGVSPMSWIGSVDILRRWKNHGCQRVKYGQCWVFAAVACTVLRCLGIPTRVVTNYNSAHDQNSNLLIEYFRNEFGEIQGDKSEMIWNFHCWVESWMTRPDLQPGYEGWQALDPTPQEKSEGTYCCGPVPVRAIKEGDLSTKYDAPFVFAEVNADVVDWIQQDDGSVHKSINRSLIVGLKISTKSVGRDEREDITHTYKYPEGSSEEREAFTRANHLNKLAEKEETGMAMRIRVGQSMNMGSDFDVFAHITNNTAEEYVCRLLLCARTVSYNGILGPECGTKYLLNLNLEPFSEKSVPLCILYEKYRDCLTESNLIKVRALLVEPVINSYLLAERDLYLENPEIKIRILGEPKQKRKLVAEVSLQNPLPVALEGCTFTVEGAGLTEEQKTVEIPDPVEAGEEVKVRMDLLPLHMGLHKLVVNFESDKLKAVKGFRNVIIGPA

HCT-116 = assay: Combination with epothilone C in colon cancer cells; type: cell-based, human; conditions: KCC009 in the 1-100 μM range
[2] = system: IOMM-Lee meningioma cells; assay: Meningioma cell sensitization to radiation, TG2-fibronectin Western blot; type: cell-based; conditions: 0.5 mM KCC009
Experimental: FIG. 4: Top left: control IOMM meningioma cells; Top right: IOMM cells exposed to 20 Gy radiation; Bottom left: IOMM cells exposed to 0.5 mM KCC009 and 20 Gy radiation.
FIG. 5: Western blot analysis of lysates from IOMM cells treated with KCC009 and/or BCNU. Lysates were immunoprecipitated with anti-fibronectin antibodies, and the Western blots were probed with anti-TG2 antibodies. Lanes (left to right): Control, KCC009 only, BCNU only, KCC009+BCNU. KCC009 and BCNU were used at concentrations of 0.5 mM and 6.25 μM, respectively. Disappearance of TG2 from lanes treated with KCC009 illustrates loss of association of TG2 with the extracellular matrix.
To verify the therapeutic utility of KCC009 against meningiomas, IOMM-Lee meningioma cells were treated with 20 Gy of radiation with and without KCC009. […] Similar data was also obtained when KCC009 was used in combination with BCNU.

DBT cells = assay: Clonogenic radiosensitizer assay; type: cell-based, murine
Experimental: FIG. 2: KCC009 as a radiosensitizer. Cultured DBT cells were treated with radiation alone (3.2 Gy) (left) or radiation plus 0.5 mM KCC009 (right), and plated on soft agar to evaluate cell viability.
In addition to evaluating the chemosensitizing potential of KCC009, this compound's potential as a radiosensitizer was also evaluated. For this clonogenic assays were used to measure colony formation after a single radiation treatment. The studies were performed in triplicate with varying doses of XRT and number of cells plated. […] A representative photo of a clonogenic assay plate treated with X-ray alone compared with a plate pre-treated with 0.5 mM KCC009 plus X-ray is shown in FIG. 2.

B16 mouse melanoma cells = assay: Melanoma cell treatment with KCC009 and/or BCNU; type: cell-based; conditions: 24 h, 1 mM KCC009 alone or with 6.25 μM BCNU
Experimental: FIG. 6A-6D: Photomicrographs of B16 (mouse melanoma cells) after 24 h treatment with KCC009 and/or BCNU. A) Control; B) 1 mM KCC009 only; C) 6.25 μM BCNU only; D) KCC009+BCNU combination.
Activity of KCC009 against melanomas: Melanomas are cancers of the neural crest-derived cells that provide pigmentation to skin and other tissues. No current treatments substantially enhance patient survival once metastasis has occurred.

## O=C(N[C@@H](Cc1ccc(O)cc1)C(=O)NCC1CC(Br)=NO1)OCc1ccccc1 (some centres unmarked) [Compound 59]
[1]
  kinh: 0.86 min⁻¹
  kinh/Ki: 2000 min^−1M^−1
HCT-116
  reduction of GI50 for epothilone C: > 2 fold
[2]; 20 Gy radiation
  sensitization to radiation: dramatically sensitized meningioma cells to radiation
[2]; fibronectin immunoprecipitate, anti-TG2 Western blot
  association between TG2 and fibronectin: loss of association between TG2 and fibronectin
DBT cells; 0.5 mM KCC009, 3.2 Gy X-ray
  enhancement of cell death in response to radiation: two orders of magnitude
DBT cells; at corresponding concentrations, no radiation
  effect of KCC009 alone on cell viability: does not affect cell viability
B16 mouse melanoma cells
  sensitivity of melanoma cells: sensitive
